Measurements published in US9686990B2, “Spiroindolinepiperidine derivatives” (priority 2002, dated 2017).

Assays:
Format in all cases: in vivo
[1] = tested on: Plutella xylostella (Diamond Back Moth); test: Plutella xylostella larva test on artificial diet; details: 120 h, 18.2 ppm by pipetting on artificial diet, L2 larvae, 5 days incubation, larval mortality, antifeedant, growth regulation
Procedure: (§1) Test against were performed as follows:
24-well microtiter plate (MTP) with artificial diet was treated with test solutions at an application rate of 18.2 ppm by pipetting. After drying, the MTP's were infested with larvae (L2) (10-15 per well). After an incubation period of 5 days, samples were checked for larval mortality, antifeedant and growth regulation.

[2] = tested on: Heliothis virescens (Tobacco Budworm); test: Heliothis virescens egg/larva test on artificial diet; details: 96 h, read-out: control of Heliothis virescens
[3] = tested on: Aedes aegypti (Yellow Fever Mosquito); test: whole plant or invertebrate; details: 48 h, L2 larvae with nutrition mixture, 2 days, mortality and growth inhibition
Procedure: as §1
Bean leaf discs on agar in 24-well microtiter plates wer sprayed with test solutions at an application rate of 200 ppm. After drying, the leaf discs are infested with mite populations of mixed ages. 8 days later, discs are checked for egg mortality, larval mortality, and adult mortality. […] Aedes aegypti (Yellow Fever Mosquito): 10-15 Aedes larvae (L2) together with a nutrition mixture are placed in 96-well microtiter plates. Test solutions at an application rate of 2 ppm are pipetted into the wells. 2 days later, insects were checked for mortality and growth inhibition.

[4] = tested on: Spodoptera littoralis (Egyptian Cotton Leafworm); test: Spodoptera littoralis cotton leaf disc spray test; details: foliar, 72 h, read-out: control of Spodoptera littoralis
Procedure: as §1
Spodoptera littoralis (Egyptian Cotton Leafworm)

Row | SMILES | pest or weed control at 18.2 ppm [1] [%] | pest or weed control at 200 ppm [2] [%] | pest or weed control at 2 ppm [3] [%] | pest or weed control at 200 ppm [4] [%]
1 | O=C(c1ccnc(Cl)c1)N1CC2(CCN(C/C=C/c3ccccc3)CC2)c2ccccc21 [Compound I-1, 1-(2-Chloropyridin-4-yl)carbonyl-1′-[trans-3-phenylallyl]spiro[indoline-3,4′-piperidine]] | ≥ 80 | ≥ 80 | – | –
2 | N#Cc1ccc2c(c1)C1(CCN(C/C=C/c3ccc(Cl)cc3)CC1)CN2C(=O)c1ccnc(Cl)c1 [Compound I-212, 5-Cyano-1-(2-chloropyridin-4-yl)carbonyl-1′-[trans-3-(4-chlorophenyl)allyl]spiro[indoline-3,4′-piperidine]] | ≥ 80 | ≥ 80 | ≥ 80 | ≥ 80
3 | CC(=O)N1CC2(CCN(C/C=C/c3ccc(Cl)cc3)CC2)c2cc(Cl)ccc21 [Compound V-22, 1-Acetyl-5-chloro-1′-[trans-3-(4-chlorophenyl)allyl]spiro[indoline-3,4′-piperidine]] | ≥ 80 | ≥ 80 | ≥ 80 | ≥ 80
4 | O=C(c1ccncc1)N1CC2(CCN(C/C=C/c3ccc(Cl)cc3)CC2)c2cc(Cl)ccc21 [VI-22, 1-(Pyridin-4-yl)-carbonyl-5-chloro-1′-[trans-3-(4-chlorophenyl)allyl]spiro[indoline-3,4′-piperidine]] | ≥ 80 | ≥ 80 | ≥ 80 | ≥ 80
5 | Clc1ccc(/C=C/CN2CCC3(CC2)CN(c2cnccn2)c2ccc(Cl)cc23)cc1 [XIV-22, 1-(2-Pyrazinyl)-5-chloro-1′-[trans-3-(4-chlorophenyl)allyl]spiro[indoline-3,4′-piperidine]] | ≥ 80 | ≥ 80 | ≥ 80 | ≥ 80
6 | Cc1ccc2c(c1)C1(CCN(C/C=C/c3ccc(Cl)cc3)CC1)CN2C(=O)c1ccc(C#N)cc1 [XIX-202, 1-(4-cyanobenzoyl)-5-methyl-1′-[trans-3-(4-chlorophenyl)allyl]spiro[indoline-3,4′-piperidine]] | – | ≥ 80 | – | ≥ 80
7 | O=C(c1ccnc(Cl)c1)N1CC2(CCN(C/C=C/c3ccc(C(F)(F)F)cc3)CC2)c2cc(Cl)ccc21 [XXX-51, 1-(2-chloropyridin-4-yl)carbonyl-5-chloro-1′-[(E)-3-(4-trifluoromethyl-phenyl)allyl]spiro[indolin-3,4′-piperidine]] | ≥ 80 | – | ≥ 80 | ≥ 80
8 | CSc1ccc(/C=C\CN2CCC3(CC2)CN(C(=O)c2ccnc(Cl)c2)c2ccc(Cl)cc23)cc1 [XXX-72, 1-(2-chloropyridin-4-yl)carbonyl-5-chloro-1′-[(Z)-3-(4-methylthiophenyl)allyl]spiro[indolin-3,4′-piperidine]] | – | ≥ 80 | – | –
9 | O=C(c1ccnc(Cl)c1)N1CC2(CCN(C/C=C(\F)c3ccc(Cl)cc3)CC2)c2cc(Cl)ccc21 [XXX-90, 1-(2-chloropyridin-4-yl)carbonyl-5-chloro-1′-[(Z)-3-(4-chlorophenyl)-3-fluoro-allyl]spiro[indolin-3,4′-piperidine]] | ≥ 80 | ≥ 80 | ≥ 80 | –
10 | NN1CC2(CCN(C/C=C/c3ccc(Cl)cc3)CC2)c2cc(F)ccc21 [XXX-94] | – | ≥ 80 | ≥ 80 | –
11 | C/C(=N/N1CC2(CCN(C/C=C/c3ccc(Cl)cc3)CC2)c2cc(Cl)ccc21)N(C)C [XXX-102, N′-[5-chloro-1′-[trans-3-(4-chlorophenyl)allyl]spiro[indoline-3,4′-piperidine]-1-yl]-N,N-dimethylacetamidine] | – | – | ≥ 80 | –
12 | COCCNC(=O)N1CC2(CCN(C/C=C/c3ccc(Cl)cc3)CC2)c2cc(F)ccc21 [XXX-105] | ≥ 80 | ≥ 80 | ≥ 80 | ≥ 80
13 | O=C(c1ccnc(Cl)c1)N1CC2(CCN(C/C(F)=C/c3ccc(Cl)cc3)CC2)c2cc(Cl)ccc21 [XXX-113, 1-(2-chloropyridin-4-yl)carbonyl-5-chloro-1′-[(Z)-3-(4-chlorophenyl)-2-fluoro-allyl]spiro[indolin-3,4′-piperidine]] | ≥ 80 | ≥ 80 | ≥ 80 | ≥ 80
14 | O=C(c1ccnc(Cl)c1)N1CC2(CCN(C/C=C(\Cl)c3ccc(Cl)cc3)CC2)c2cc(Cl)ccc21 [XXX-115, 1-(2-chloropyridin-4-yl)carbonyl-5-chloro-1′-[(Z)-3-(4-chlorophenyl)-3-chloro-allyl]spiro[indolin-3,4′-piperidine]] | – | ≥ 80 | – | –
